Results on 35 compounds are retold here after patent publication US7407954B2, “Thieno-(1,3)-oxazin-4-ones with lipase inhibiting activity” (Alizyme Therapeutics Limited, priority 2001, dated 2008).

As usually defined, the IC50 is the concentration that inhibits the measured activity by half.

For assay [1], the target named is T1, porcine pancreatic lipase (Sus scrofa, UniProt P00591).
T1 sequence (P00591 1-450): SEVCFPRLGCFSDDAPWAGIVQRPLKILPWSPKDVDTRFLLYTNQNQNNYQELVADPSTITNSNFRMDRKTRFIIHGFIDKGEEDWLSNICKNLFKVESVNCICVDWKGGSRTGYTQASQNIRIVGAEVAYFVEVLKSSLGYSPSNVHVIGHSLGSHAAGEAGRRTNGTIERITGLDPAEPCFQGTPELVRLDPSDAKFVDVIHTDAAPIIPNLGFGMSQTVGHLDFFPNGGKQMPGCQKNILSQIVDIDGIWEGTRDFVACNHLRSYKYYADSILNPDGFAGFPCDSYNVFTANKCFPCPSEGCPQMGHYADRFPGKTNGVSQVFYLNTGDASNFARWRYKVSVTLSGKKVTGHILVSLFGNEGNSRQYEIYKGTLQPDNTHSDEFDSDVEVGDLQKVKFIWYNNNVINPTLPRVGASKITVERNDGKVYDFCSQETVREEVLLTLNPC
Put plainly: Lipase enzyme activity, NaOH titration method (lipid micelles). The settings on record: NaOH titration assay. It is filed as biochemical. As for the experimental part:
Measurement of Lipase Enzyme Activity Using a NaOH Titration Method
The inhibitory activity of the selected compound to pancreatic lipase was measured in the assay described in Pasquier et al; 1996, Vol 7, Nutritional Biochemistry, 293-302.
Log dose/response curves were constructed using a range of inhibitor concentrations.
Selected thieno-oxazinone compounds were tested in the NaOH titration assay. In this assay, the activity of porcine pancreatic lipase in a system containing lipid micelles is recorded. These conditions are therefore similar to those encountered in the gastrointestinal tract.

In a further assay the target is T2, human pancreatic lipase (Homo sapiens, UniProt P16233).
T2 sequence (P16233 17-465): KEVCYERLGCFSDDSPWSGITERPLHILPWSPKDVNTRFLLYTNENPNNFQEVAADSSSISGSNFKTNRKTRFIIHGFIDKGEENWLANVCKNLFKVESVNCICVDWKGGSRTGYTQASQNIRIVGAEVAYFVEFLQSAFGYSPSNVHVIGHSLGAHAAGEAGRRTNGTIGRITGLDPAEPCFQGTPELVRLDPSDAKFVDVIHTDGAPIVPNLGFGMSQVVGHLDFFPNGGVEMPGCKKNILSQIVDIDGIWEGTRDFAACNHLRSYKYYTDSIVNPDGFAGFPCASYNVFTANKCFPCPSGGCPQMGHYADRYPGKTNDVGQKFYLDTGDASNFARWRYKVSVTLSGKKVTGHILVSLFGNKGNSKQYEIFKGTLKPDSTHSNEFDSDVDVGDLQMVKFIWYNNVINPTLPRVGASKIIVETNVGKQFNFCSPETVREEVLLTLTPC
Put plainly: Lipase activity, quinine diimine dye colorimetric assay (Sigma Lipase-PS). It is filed as biochemical. As for the experimental part: Measurement of Lipase Activity Using a Quinine Diimine Dye Calorimetric Assay
The inhibitory activity of the selected compounds to pancreatic lipase was measured in the following assay available from Sigma Ltd (Lipase-PS™, catalog number 805-A):
The glycerol released from the action of pancreatic and monoglyceride lipase was oxidised to release H2O2. The peroxidase reaction step then produces a quinine dye which is pink in colour and absorbs light at a wavelength of 550 nm.
Individual test compounds were dissolved in DMSO (dimethyl sulphoxide) at 10 mM. DMSO was used to avoid any problems with compounds being water-insoluble.
For individual compounds, the IC50 (concentration at which lipase activity is inhibited to one half of the maximum) was calculated by measuring the inhibitory activity from log-dose response curves using a range of inhibitor concentrations.
A range of standard compounds were assayed in the quinine dye calorimetric assay which provides a rapid method to measure lipase inhibitory activity.

The structures appear in SMILES notation. Where only a bound is given, the exact number is not on record here.

On to `O=c1oc(Nc2ccccc2)nc2sccc12` [Compound 1, 2-Phenylamino-4H-thieno[2,3-d][1,3]oxazin-4-one], for which the IC50 was at most 1000 nM in assay [1] and under 100 nM against human pancreatic lipase.

Take `O=c1oc(Nc2ccc(Oc3ccccc3)cc2)nc2sccc12` [Compound 5, 2-(4-Phenoxy)phenylamino-4H-thieno[2,3-d][1,3]oxazin-4-one]: the IC50 was at most 1000 nM in assay [1] and under 100 nM against human pancreatic lipase. Take `O=c1oc(Nc2ccccc2)nc2cc(-c3ccccc3)sc12` [Compound 6]: the IC50 in assay [1] is at most 1000 nM; at human pancreatic lipase it was under 100 nM. The like results for `O=c1oc(Nc2ccc(Oc3cccc(C(F)(F)F)c3)cc2)nc2sccc12` [Compound 7, 2-(4-(3-Trifluoromethyl-phenoxy)phenylamino)-4H-thieno[2,3-d][1,3]oxazin-4-one] were, in that order, at most 1000 nM and under 100 nM.

On to `CC(C)(C)c1cc2nc(Nc3ccccc3)oc(=O)c2s1` [Compound 8], for which the IC50 was at most 1000 nM in assay [1] and under 100 nM against human pancreatic lipase.

With `Cc1cc2c(=O)oc(Nc3ccc(Oc4ccccc4)cc3)nc2s1` [Compound 9, 6-Methyl-2-(4-phenoxy)phenylamino-4H-thieno[2,3-d][1,3]oxazin-4-one], the figures for the IC50 (in assay [1]; against human pancreatic lipase) were at most 1000 nM and under 100 nM, respectively. The like results for `O=c1oc(Nc2ccc(Oc3ccccc3)cc2)nc2ccsc12` [Compound 10, 2-(4-Phenoxy)phenylamino-4H-thieno[3,2-d][1,3]oxazin-4-one] were, in that order, at most 1000 nM and under 100 nM. The like results for `O=c1oc(Nc2ccc(Cc3ccccc3)cc2)nc2sccc12` [Compound 11, 2-(4-Phenylmethyl)phenylamino-4H-thieno[2,3-d][1,3]oxazin-4-one] were, in that order, at most 1000 nM and under 100 nM. In the case of `O=C(c1ccccc1)c1ccc(Nc2nc3sccc3c(=O)o2)cc1` [Compound 12, 2-(4-Benzoyl)phenylamino-4H-thieno[2,3-d][1,3]oxazin-4-one], the IC50 is at most 1000 nM in assay [1] and under 100 nM against human pancreatic lipase.

In the case of `O=c1oc(Nc2ccc(Oc3ccc(C(F)(F)F)cc3)cc2)nc2sccc12` [Compound 14, 2-(4-(4-Trifluoromethyl-phenoxy)phenylamino)-4H-thieno[2,3-d][1,3]oxazin-4-one], the half-inhibitory concentration (IC50) was at most 1000 nM in assay [1] and under 100 nM at human pancreatic lipase. The like results for `O=c1oc(Oc2ccc(Oc3cccc(C(F)(F)F)c3)cc2)nc2ccsc12` [Compound 15, 2-(4-(3-Trifluoromethyl-phenoxy)phenoxy)-4H-thieno[3,2-d][1,3]oxazin-4-one] were, in that order, at most 1000 nM and under 100 nM. The like results for `O=c1oc(Nc2ccc(Sc3ccccc3)cc2)nc2sccc12` [Compound 16, 2-(4-Phenylthio)phenylamino-4H-thieno[2,3-d][1,3]oxazin-4-one] were, in that order, at most 1000 nM and under 100 nM. Turning to `CCCCCCCCCCCCNc1nc2sc(C)cc2c(=O)o1` [Compound 18, 2-Dodecylamino-6-methyl-4H-thieno[2,3-d][1,3]oxazin-4-one], the IC50 against human pancreatic lipase was under 100 nM. In turn, `CCCCCCCCCCCCN(C)c1nc2sc(C)cc2c(=O)o1` [Compound 19, 2-N-Dodecyl-N-methylamino-6-methyl-4H-thieno[2,3-d][1,3]oxazin-4-one] came in with a concentration for half-maximal inhibition (IC50) against human pancreatic lipase of under 100 nM. With `CCCCCCCCCCCCNc1nc2sccc2c(=O)o1` [Compound 20, 2-Dodecylamino-4H-thieno[2,3-d][1,3]oxazin-4-one], on human pancreatic lipase, the 50% inhibitory concentration (IC50) was under 100 nM. On the same count and under the same terms, the result for `CCCCCCCCCCCCSc1nc2sc(C)cc2c(=O)o1` [Compound 21, 2-Dodecylthio-6-methyl-4H-thieno[2,3-d][1,3]oxazin-4-one] reads under 100 nM; that for `O=c1oc(Nc2ccc(S(=O)(=O)c3ccccc3)cc2)nc2sccc12` [Compound 23, 2-(4-Phenylsulfonyl)phenylamino-4H-thieno[2,3-d][1,3]oxazin-4-one], under 100 nM; that for `O=C(Nc1ccccc1)c1ccc(Nc2nc3sccc3c(=O)o2)cc1` [Compound 24, 2-(4-Phenylcarbamoyl)phenylamino-4H-thieno[2,3-d][1,3]oxazin-4-one], under 100 nM.

`O=c1oc(Nc2ccc(Oc3ccc(Cl)cc3)cc2)nc2sccc12` [Compound 25, 2-(4-(4-Chlorophenoxy)-phenylamino)-4H-thieno[2,3-d][1,3]oxazin-4-one] returned an IC50 on human pancreatic lipase of under 100 nM.

`Cc1ccc(Oc2ccc(Nc3nc4sccc4c(=O)o3)cc2)cc1` [Compound 26, 2-(4-(4-Methylphenoxy)-phenylamino)-4H-thieno[2,3-d][1,3]oxazin-4-one] had a concentration for half-maximal inhibition (IC50) against human pancreatic lipase of under 100 nM. Same read-out and setting: the result for `N#Cc1ccc(Nc2nc3sccc3c(=O)o2)cc1` [Compound 27, 2-(4-Cyanophenyl)amino-4H-thieno[2,3-d][1,3]oxazin-4-one] reads under 100 nM; that for `CCCc1cc2c(=O)oc(Nc3ccc(C#N)cc3)nc2s1` [Compound 28, 2-(4-Cyanophenyl)amino-6-propyl-4H-thieno[2,3-d][1,3]oxazin-4-one], under 100 nM; that for `Cc1cc2c(=O)oc(Nc3ccc(C#N)cc3)nc2s1` [Compound 29, 2-(4-Cyanophenyl)amino-6-methyl-4H-thieno[2,3-d][1,3]oxazin-4-one], under 100 nM. The compound `N#Cc1ccc(Nc2nc3sc(Cc4ccccc4)cc3c(=O)o2)cc1` [Compound 30, 6-Phenylmethyl-2-(4-cyanophenyl)amino-4H-thieno[2,3-d][1,3]oxazin-4-one] returned an IC50 against human pancreatic lipase of under 100 nM.

Compound `CCCCCCCCCCCCc1cc2c(=O)oc(Nc3ccc(C#N)cc3)nc2s1` [Compound 31, 2-(4-Cyanophenyl)amino-6-dodecyl-4H-thieno[2,3-d][1,3]oxazin-4-one] had a half-inhibitory concentration (IC50) against human pancreatic lipase of under 100 nM. On the same count and under the same terms, the same measure for `Cc1cc2c(=O)oc(NCCCCc3ccccc3)nc2s1` [Compound 32, 6-Methyl-2-(4-phenylbutyl)amino-4H-thieno[2,3-d][1,3]oxazin-4-one]: under 100 nM; for `Cc1cc2c(=O)oc(NCCCl)nc2s1` [Compound 33, 2-(2-Chloroethyl)amino-6-methyl-4H-thieno[2,3-d][1,3]oxazin-4-one]: under 100 nM; for `COC(=O)CCCCCNc1nc2sc(C)cc2c(=O)o1` [Compound 35, 2-(5-Methoxycarbonylpentyl)amino-6-methyl-4H-thieno[2,3-d][1,3]oxazin-4-one]: under 100 nM. Still for that read-out and setting: the result for `O=c1oc(Nc2ccc(Oc3ccc(C(F)(F)F)cc3)cc2)nc2ccsc12` [Compound 38, 2-(4-(4-Trifluoromethyl-phenoxy)phenylamino)-4H-thieno[3,2-d][1,3]oxazin-4-one] reads under 100 nM.

At human pancreatic lipase, `N#Cc1ccc(Nc2nc3ccsc3c(=O)o2)cc1` [Compound 40, 2-(4-Cyanophenyl)amino-4H-thieno[3,2-d][1,3]oxazin-4-one] came in with an IC50 of under 100 nM. Still for that read-out and setting: the result for `CCCCCCCCCCCCNc1nc2ccsc2c(=O)o1` [Compound 41, 2-Dodecylamino-4H-thieno[3,2-d][1,3]oxazin-4-one] reads under 100 nM. For `Cc1cc2nc(Nc3ccc(Oc4ccccc4)cc3)oc(=O)c2s1` [Compound 43, 5-Methyl-2-(4-phenoxy)phenylamino-4H-thieno[3,2-d][1,3]oxazin-4-one], the IC50 in assay [1] is at most 1000 nM; at human pancreatic lipase, under 100 nM. For `CCCc1cc2c(=O)oc(Nc3ccc(Oc4ccccc4)cc3)nc2s1` [Compound 44, 6-Propyl-2-(4-phenoxy)phenylamino-4H-thieno[2,3-d][1,3]oxazin-4-one] the same measures were at most 1000 nM and under 100 nM. The like results for `CCCCCCCCCCCCCCCCNc1nc2sc(C)cc2c(=O)o1` [Compound 45, 2-Hexadecylamino-6-methyl-4H-thieno-[2,3-d][1,3]oxazin-4-one] were, in that order, at most 1000 nM and under 100 nM. Consider `Cc1cc2c(=O)oc(Nc3ccccc3)nc2s1` [Compound 46, 6-Methyl-2-phenylamino-4H-thieno[2,3-d][1,3]oxazin-4-one], for which the IC50 in assay [1] is at most 1000 nM; at human pancreatic lipase it was under 100 nM.
